The values below come from patent US9775859B2, “Methods and compositions for preventing and treating a disease related to glycan dysregulation” (Sinai Health System, priority 2005, dated 2017).

Data set [1] has as its system Jurkat T-cells. In words: LEA-FITC staining (poly-N-acetyllactosamine) of Jurkat T cells, FACS. The class given is cell-based, human. The following applies: 3 days culture with supplement. The method, then:
(§1) Mice used for L-PHA staining and quantitative RT-PCR were sex and age matched. […] 129/Sv mice were from an original Mgat5 gene targeted population (28). All other mice (SJL, NOD, Balb/c and B10.S) were obtained from Jackson Laboratories. […] Mouse and Jurkat cells were stained with L-PHA and LEA by first blocking with PBA (2% bovine serum albumin/0.01% azide/PBS) for 10 min at 4° C. and then incubated with 4 μg/ml of L-PHA-FITC (Vector Laboratories Inc.) or 20 μg/ml of LEA-FITC (Sigma) in PBA for 40 min at 4° C. and analyzed by a BD FACSCalihur (BD Pharmingen, San Diego, Calif.). The level of lectin binding was normalized by untreated control and calculated as a percentage (Sample intensity/control intensity-1) %.
(§2) Mice used for L-PHA staining and quantitative RT-PCR were sex and age matched. […] 129/Sv mice were from the original Mgat5 gene targeted population (28). All other mice (SJL, NOD, Balb/c and B10.S) were obtained from Jackson Laboratories. Mouse cells were stained with anti-CD4 (RM4-5), anti-CD8 (53-6.7), anti-CD45R (RA3-6B2) from eBioscience, and L-PHA (4 μg/ml) and LEA (20 μg/ml) from Sigma. […] Jurkat T-cells were cultured in either glutamine free RPMI 1640, 10% FBS, 10 mM/20 mM glucose or glucose/glutamine free DMEM base media supplemented with 10% FBS, 1.5 mM glucose. The indicated monosaccharides and/or metabolites were added daily except glucose which was added only at time zero.

Data set [2] relates to splenocytes harvested from MBP immunized wild type PL/J mice. Put plainly: Cytokine ELISA of supernatant from MBP re-stimulated splenocyte cultures. The class given is cell-based, mouse. The note with it: MBP re-stimulation day 4, GlcNAc 40 mM. The method, then:
Supernatant from spleenocyte cultures used for adoptive transfer EAE at day 4 of stimulation with MBP in the presence or absence of GlcNAc (40 mM) were tested for INFγ levels. Microtiter plates were coated with 50 μl of anti-IFN-γ (1 μg/ml, clone AN-18; eBiosciences) overnight at 4° C. Supernatants were applied at 50 μl/well in duplicate and incubated for 2 hours at room temperature. Captured cytokines were detected using biotinylated anti-IFN-γ (1 μg/ml, clone R4-6A2; eBiosciences) and detected using Avidin Horse Radish Peroxidase (eBiosciences) at 1:500× dilution and o-Phenylenediamine dihydrochloride OPD tablets (Sigma) according to the manufacturer's protocols. […] Colorimetric change was measured at 450 nm on a microplate autoreader (Labsystems).
Supernatant from splenocyte cultures used for adoptive transfer EAE at day 4 of stimulation with MBP in the presence or absence of GlcNAc (40 mM) were tested for IFN-γ and IL-6 levels. […] Captured cytokines were detected using biotinylated anti-IFN-γ (1 μg/ml, clone R4-6A2; eBiosciences) or anti-IL-6 (1 μg/ml, clone MP5-32C11; eBiosciences) and detected using Avidin Horse Radish Peroxidase (eBiosciences) at 1:500× dilution and o-Phenylenediamine dihydrochloride OPD tablets (Sigma) according to the manufacturer's protocols. […] Colorimetric change was measured at 450 nm on a microplate autoreader (Labsystems).

Data set [3] relates to Jurkat T-cells. In words: MS/MS mass spectroscopy of sugar-nucleotide expression in Jurkat cell lysates. The class given is cell-based, human. The method, then:
Jurkat cell pellets (20×10^6) were resuspended in a cold 300 μl methanol:water (1:1) solution containing maltose as internal standard, vortexed for 10 seconds, and then pipetted into tubes containing 600 μl of chloroform:methanol (C:M) (3:2). Samples were vortexed for 1 minute, and then centrifuged at 14,000 rpm for 5 minutes at 4° C. Supernatants were collected, and an equal volume of C:M (1:1) was added, followed by a second extraction. The pooled aqueous fraction containing the hydrophilic metabolites was dried with a speedvac and stored at −80° C. Prior to injection, the samples were dissolved in 100 μl methanol:water (1:1). […] The metabolites were identified by their transitions in MS/MS, and quantified using the Analyte Software (SCIEX), which measured the area under the curve for the fragment ions corresponding to each parent ion. Quantities for the given substrates are graphed as pmole/min/10^6 cells.
JurkaT-cell pellets (20×10^6) were resuspended in cold 300 μl methanol:water (1:1) solution containing maltose as an internal standard, vortexed for 10 seconds, and then pipetted into tubes containing 600 μl of chloroform:methanol (C:M) (3:2). […] The metabolites were identified by their transitions in MS/MS, and quantified using the Analyte Software (SCIEX), which measured the area under the curve for the fragment ions corresponding to each parent ion. […]

The test system of data set [4] is splenocytes harvested from MBP immunized wild type PL/J mice. Put plainly: L-PHA and LEA staining of splenocytes from MBP immunized PL/J mice re-stimulated with MBP. The class given is cell-based, mouse. The following applies: MBP re-stimulation 4 days, GlcNAc 40 mM. The method, then:
(§3) Adoptive transfer EAE was induced by s.c. immunization of wild type PL/J mice housed in the UCI vivarium with 100 μg of bovine MBP (Sigma) emulsified in Complete Freund's Adjuvant containing 4 mg/ml heat-inactivated Mycobacterium tuberculosis (H37 RA; Difco, Detroit, Mich.) distributed over three spots on the hind flank. Splenocytes were harvested after 11 days and stimulated in vitro with 50 μg/ml MBP in the presence or absence of 40 mM N-Acetyl-D-glucosamine (Sigma) added daily. After 96 hours incubation, CD3^+ T cells were purified by negative selection (R&D Systems) and 3.5×10^6T-cells were injected i.p. into naïve PL/J Mgat5^+/− recipient mice. Trypan blue exclusion determined <3% dead cells under both culture conditions. The mice were scored daily for clinical signs over the next 30 days with the observer blinded to treatment conditions.
Mice used for L-PHA staining and quantitative RT-PCR were sex and age matched. […] 129/Sv mice were from an original Mgat5 gene targeted population (28). […] Mouse and Jurkat cells were stained with L-PHA and LEA by first blocking with PBA (2% bovine serum albumin/0.01% azide/PBS) for 10 min at 4° C. and then incubated with 4 μg/ml of L-PHA-FITC (Vector Laboratories Inc.) or 20 μg/ml of LEA-FITC (Sigma) in PBA for 40 min at 4° C. and analyzed by a BD FACSCalihur (BD Pharmingen, San Diego, Calif.). […]

The test system of the next data set is CD3+ T cells. In words: Trypan blue exclusion of MBP-stimulated cultures used for adoptive transfer. The class given is cell-based. The following applies: 96 hours incubation, 40 mM added daily. The method, then: as §3
(§4) Adoptive transfer EAE was induced by s.c. immunization of wild type PL/J mice housed in the UCI vivarium with 100 μg of bovine MBP (Sigma) emulsified in Complete Freund's Adjuvant containing 4 mg/ml heat-inactivated Mycobacterium tuberculosis (H37 RA; Difco, Detroit, Mich.) distributed over three spots on the hind flank. […] Trypan blue exclusion determined […] dead cells under both culture conditions. Mice were scored daily for clinical signs of EAE over the next 30 days with the observer blinded to treatment conditions.

Data set [5] relates to naïve PL/J Mgat5+/− recipient mice. Put plainly: Adoptive transfer EAE. The class given is in vivo, mouse. The note with it: T-cells re-stimulated in vitro with GlcNAc 40 mM, scored 30 days. The method, then: as §3, §4
Data set [6] deals with Jurkat T-cells. Put plainly: L-PHA-FITC staining of Jurkat T cells cultured 3 days with monosaccharides, metabolites, Vitamin D3 or glycosidase inhibitors, FACS. The class given is cell-based, human. The following applies: for Mgat5 N-glycans / β1,6GlcNAc-branched N-glycans expression (L-PHA staining): Jurkat T-cells, 3 days culture with supplement. The method, then:
as §1, §2

A further data set deals with hepatoma cells. The note with it: cited from earlier work.
The subject of a further data set is EAE. The following applies: mouse, in vivo; cited from earlier work.
A further data set concerns T cell. The following applies: cited from earlier work.
The next data set relates to human PBMCs. In words: L-PHA staining of human PBMCs / MS patient T cells. The class given is cell-based. The method, then:
Mononuclear cells were isolated from the blood of subjects using Histopaque-1077™ gradients (Sigma, Saint Louis, Mo.) and cultured in RPMI 1640 medium supplemented with 4 mM glutamine, 1 mM sodium pyruvate, 1% non-essential amino acids, 1% RPMI vitamins, 100 units/ml penicillin, 100 μg/ml streptomycin, and 50 μM […]. T lymphocytes were left unstimulated or were activated for 48 hours with 20 ng/ml anti-CD3 antibody (Biomeda, Foster City, Calif.) or a combination of 20 myelin peptides at […] myelin basic protein (MBP). The myelin peptides were immunodominant peptides from human proteolipid protein (PLP 30-49, PLP 40-60, PLP 95-118, PLP 118-150, PLP-180-189, PLP 185-206), human myelin oligodendrocyte glycoprotein (MOG 38-60, MOG 63-87, MOG 76-100, MOG 89-113, MOG 112-132 and MOG 162-188) and cryptic peptides from MBP (MBP 41-69, MBP 61-79, MBP 121-139 and MBP 131-149) and PLP (PLP 73-104, PLP 145-186, PLP 218-248 and PLP 241-272) that are not normally derived from antigen processing but may be made by extracellular proteolytic activity (57). Whole MBP was isolated from frozen guinea pig spinal cords (Harlan Bioproducts, Indianapolis, Ind.). […] The stained cells were analyzed on a FACScan (BD Biosciences, San Jose, Calif.) using the CellQuest software. […] Background fluorescence was subtracted for each population. […]

Each structure is given as a SMILES string. Entries after “also recorded” stand apart in the source; their conditions may differ.

On to `CC(=O)N[C@H]1C(O)O[C@H](CO)[C@@H](O)[C@@H]1O` (stereo partly drawn) [GlcNAc, N-acetyl-D-glucosamine], for which the “poly-N-acetyllactosamine expression (LEA staining)” value in the data set with Jurkat T-cells [1] is given as “dose dependently increased”. Besides, in data set [2], the IL-6 secretion result was “promoted” and the INFγ production result is reported as “inhibited”. The “intracellular UDP-GlcNAc levels” value in the data set with Jurkat T-cells [3] is on record as “dramatically raised”. Also, in data set [4], the “Mgat5 N-glycan / β1,6GlcNAc-branched N-glycans expression in re-stimulated splenocytes” value is reported as “doubled; also recorded: increased” and the “poly-N-acetyllactosamine expression in re-stimulated splenocytes” value is given as “doubled; also recorded: increased”. Further, in the data set with CD3+ T cells, the “dead cells (Trypan blue exclusion)” value was under 5%. Moreover, the “dead cells (Trypan blue exclusion)” value in the data set with CD3+ T cells (listed as N-Acetyl-D-glucosamine) is given as under 3%. In addition, in data set [5], the “incidence of EAE following adoptive transfer of T-cells” value was “dramatically reduced” and the “severity of EAE following adoptive transfer of T-cells” value is recorded as “dramatically reduced”. In addition, the “Mgat5 N-glycans / β1,6GlcNAc-branched N-glycans expression (L-PHA staining)” value in the data set on Jurkat T-cells [6] is on record as “dose dependently increased”.
In the case of `C=C1/C(=C\C=C2/CCC[C@]3(C)[C@@H]([C@H](C)CCCC(C)(C)O)CC[C@@H]23)C[C@@H](O)C[C@@H]1O` [Vitamin D3, 1α,25-Dihydroxyvitamin D3], in the data set on hepatoma cells, the “Mgat5 mRNA expression” value is on record as “up-regulates”. In the data set with EAE, the EAE entry is reported as “inhibits”. In the data set with T cell, the INFγ production result was “inhibits”, the T cell activation result is “inhibits” and the TH1 differentiation result was “inhibits”. The “reversal of SW induced downregulation of Mgat5 glycans” value with Jurkat T-cells [6] (Jurkat T cells with swainsonine) was “rescued; also recorded: reversed”. Moreover, the “synergy with anti-CD3 in up-regulating Mgat5 glycan levels” value in the data set on Jurkat T-cells [6] (Jurkat T cells, anti-CD3) is recorded as “synergized”. The “Mgat5 N-glycans / β1,6GlcNAc-branched N-glycans expression (L-PHA staining)” value in the data set with Jurkat T-cells [6] is listed as “enhanced; also recorded: increases”. The “reversal of attenuated Mgat5 N-glycan expression in MS patients” value in the data set with human PBMCs (MS patient T cells) is on record as “reversed”. Besides, the “Mgat5 modified glycan expression” value in the data set with human PBMCs (human PBMCs) is on record as “enhanced”.
